Reference: patent publication US10479795B2 (Incyte Corporation, priority 2016, dated 2019)

Molecular target: PI3Kγ (p110γ) Recombinant Human Protein (Homo sapiens (Human), UniProt P48736)
Assay: PI3K-γ Scintillation Proximity Assay
Assay type: biochemical
Details: read-out: PI3Kγ IC50
Method: [γ-^33P]ATP (10 mCi/mL) and Wheat Germ Agglutinin (WGA) YSi SPA Scintillation Beads was purchased from Perkin-Elmer (Waltham, Mass.). […] PI3Kγ (p110γ) Recombinant Human Protein was purchased from Life technology (Grand Island, N.Y.). ATP, MgCl2, DTT, EDTA, MOPS and CHAPS were purchased from Sigma-Aldrich (St. Louis, Mo.).
The kinase reaction was conducted in polystyrene 384-well Greiner Bio-one white plate from Thermo Fisher Scientific in a final volume of 25 μL. Inhibitors were first diluted serially in DMSO and added to the plate wells before the addition of other reaction components. The final concentration of DMSO in the assay was 2%. The PI3Kγ assay was carried out at room temperature in 20 mM MOPS, pH 6.7, 10 mM MgCl2, 5 mM DTT and CHAPS 0.03%. Reactions were initiated by the addition of ATP, the final reaction mixture consisted of 20 μM PIP2, 2 μM ATP, 0.5 μCi [γ-^33P] […] The final concentration of SPA beads is 1.0 mg/mL. After the plate sealing, plates were shaken overnight at room temperature and centrifuged at 1500 rpm for 10 min, the radioactivity of the product was determined by scintillation counting on Topcount (Perkin-Elmer). IC50 determination was performed by fitting the curve of percent of the solvent control activity versus the log of the inhibitor concentration using the GraphPad Prism 6.0 software.

Chain of PI3Kγ (p110γ) Recombinant Human Protein (P48736 whole entry): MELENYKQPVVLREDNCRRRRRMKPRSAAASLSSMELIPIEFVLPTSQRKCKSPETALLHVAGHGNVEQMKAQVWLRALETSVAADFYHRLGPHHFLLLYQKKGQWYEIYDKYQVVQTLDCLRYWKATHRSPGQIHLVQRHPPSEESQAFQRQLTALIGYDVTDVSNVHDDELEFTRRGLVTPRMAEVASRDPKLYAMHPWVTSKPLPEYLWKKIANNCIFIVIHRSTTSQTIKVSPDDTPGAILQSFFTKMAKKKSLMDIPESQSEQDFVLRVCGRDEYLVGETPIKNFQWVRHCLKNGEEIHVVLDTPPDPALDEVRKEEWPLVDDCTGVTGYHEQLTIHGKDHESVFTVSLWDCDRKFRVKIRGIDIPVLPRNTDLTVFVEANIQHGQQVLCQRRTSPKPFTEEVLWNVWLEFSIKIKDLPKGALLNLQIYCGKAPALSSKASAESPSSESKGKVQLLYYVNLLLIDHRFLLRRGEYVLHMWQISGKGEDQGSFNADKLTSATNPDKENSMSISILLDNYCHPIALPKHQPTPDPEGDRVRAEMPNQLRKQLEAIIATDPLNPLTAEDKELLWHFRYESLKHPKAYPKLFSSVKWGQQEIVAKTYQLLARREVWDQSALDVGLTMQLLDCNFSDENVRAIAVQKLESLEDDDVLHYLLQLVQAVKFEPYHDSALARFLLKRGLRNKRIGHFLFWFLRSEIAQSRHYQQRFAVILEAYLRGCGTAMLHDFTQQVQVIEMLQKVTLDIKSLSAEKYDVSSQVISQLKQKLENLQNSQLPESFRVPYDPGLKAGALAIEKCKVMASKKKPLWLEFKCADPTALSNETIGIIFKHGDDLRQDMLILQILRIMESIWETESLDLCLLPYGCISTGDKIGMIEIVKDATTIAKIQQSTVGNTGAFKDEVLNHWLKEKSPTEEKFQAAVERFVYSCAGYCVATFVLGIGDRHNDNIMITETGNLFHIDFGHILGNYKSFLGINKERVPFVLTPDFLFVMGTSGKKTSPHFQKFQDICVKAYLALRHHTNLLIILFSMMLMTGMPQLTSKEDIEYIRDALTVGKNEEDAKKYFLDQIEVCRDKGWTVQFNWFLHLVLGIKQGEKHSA

IC50	SMILES
< 0.1 µM	Cc1ccc(S(=O)(=O)Nc2c(C)nn(C)c2C)cc1-c1cnc2c(N)ncnn12 [Example 214, 3-(4-Aminoimidazo[2,1-f][1,2,4]triazin-7-yl)-4-methyl-N-(1,3,5-trimethyl-1H-pyrazol-4-yl)benzenesulfonamide]
< 0.1 µM	Cc1ccc(S(=O)(=O)N2CCCn3nccc32)cc1-c1cnc2c(N)ncnn12 [Example 215, 7-(5-((6,7-dihydropyrazolo[1,5-a]pyrimidin-4(5H)-yl)sulfonyl)-2-methylphenyl)imidazo[2,1-f][1,2,4]triazin-4-amine]
< 0.1 µM	Cc1ccc(S(=O)(=O)N2CCC(c3ccccn3)CC2)cc1-c1cnc2c(N)ncnn12 [Example 216, 7-(2-methyl-5-((4-(pyridin-2-yl)piperidin-1-yl)sulfonyl)phenyl)imidazo[2,1-f][1,2,4]triazin-4-amine]
< 0.1 µM	Cc1ccc(S(=O)(=O)N2CCC(C#N)CC2)cc1-c1cnc2c(N)ncnn12 [Example 217, 1-((3-(4-aminoimidazo[2,1-f][1,2,4]triazin-7-yl)-4-methylphenyl)sulfonyl)piperidine-4-carbonitrile]
< 0.1 µM	Cc1ccc(S(=O)(=O)N2CCCC(C(F)(F)F)C2)cc1-c1cnc2c(N)ncnn12 (stereo not shown) [Example 218, 7-(2-methyl-5-((3-(trifluoromethyl)piperidin-1-yl)sulfonyl)phenyl)imidazo[2,1-f][1,2,4]triazin-4-amine]
0.1 to 0.5 µM	Cc1ccc(S(=O)(=O)N2CC(C3CCOC3)C2)cc1-c1cnc2c(N)ncnn12 (stereo not shown) [Example 219, 7-(2-methyl-5-((3-(tetrahydrofuran-3-yl)azetidin-1-yl)sulfonyl)phenyl)imidazo[2,1-f][1,2,4]triazin-4-amine]
< 0.1 µM	Cc1ccc(S(=O)(=O)N2CC3(CCOC3)C2)cc1-c1cnc2c(N)ncnn12 [Example 220, 7-(5-((6-oxa-2-azaspiro[3.4]octan-2-yl)sulfonyl)-2-methylphenyl)imidazo[2,1-f][1,2,4]triazin-4-amine]
< 0.1 µM	Cc1ccc(S(=O)(=O)N2C3CC4CC2CC(C3)O4)cc1-c1cnc2c(N)ncnn12 [Example 221, 7-(5-((-2-oxa-6-azaadamantan-6-yl)sulfonyl)-2-methylphenyl)imidazo[2,1-f][1,2,4]triazin-4-amine]
< 0.1 µM	Cc1ccc(S(=O)(=O)N2CCn3cnnc3C2C)cc1-c1cnc2c(N)ncnn12 (stereo not shown) [Example 222, 7-(2-methyl-5-((8-methyl-5,6-dihydro-[1,2,4]triazolo[4,3-a]pyrazin-7(8H)-yl)sulfonyl)phenyl)imidazo[2,1-f][1,2,4]triazin-4-amine]
< 0.1 µM	Cc1ccc(S(=O)(=O)N2CCn3ccnc3C2)cc1-c1cnc2c(N)ncnn12 [Example 223, 7-(5-((5,6-dihydroimidazo[1,2-a]pyrazin-7(8H)-yl)sulfonyl)-2-methylphenyl)imidazo[2,1-f][1,2,4]triazin-4-amine]
< 0.1 µM	Cc1ccc(S(=O)(=O)N2CCc3nc[nH]c3C2)cc1-c1cnc2c(N)ncnn12 [Example 224, 7-(2-methyl-5-((3,4,6,7-tetrahydro-5H-imidazo[4,5-c]pyridin-5-yl)sulfonyl)phenyl)imidazo[2,1-f][1,2,4]triazin-4-amine]
< 0.1 µM	Cc1ccc(S(=O)(=O)N2CCc3nn(C)cc3C2)cc1-c1cnc2c(N)ncnn12 [Example 225, 7-(2-methyl-5-((2-methyl-2,4,6,7-tetrahydro-5H-pyrazolo[4,3-c]pyridin-5-yl)sulfonyl)phenyl)imidazo[2,1-f][1,2,4]triazin-4-amine]
< 0.1 µM	CC(=O)NC1CCN(S(=O)(=O)c2ccc(C)c(-c3cnc4c(N)ncnn34)c2)CC1 [Example 226, N-(1-((3-(4-aminoimidazo[2,1-f][1,2,4]triazin-7-yl)-4-methylphenyl)sulfonyl)piperidin-4-yl)acetamide]
< 0.1 µM	CNC(=O)C1CCN(S(=O)(=O)c2ccc(C)c(-c3cnc4c(N)ncnn34)c2)CC1 [Example 227, 1-((3-(4-aminoimidazo[2,1-f][1,2,4]triazin-7-yl)-4-methylphenyl)sulfonyl)-N-methylpiperidine-4-carboxamide]
< 0.1 µM	Cc1ccc(S(=O)(=O)N2CCN(C)C(=O)C2)cc1-c1cnc2c(N)ncnn12 [Example 228, 4-((3-(4-aminoimidazo[2,1-f][1,2,4]triazin-7-yl)-4-methylphenyl)sulfonyl)-1-methylpiperazin-2-one]
< 0.1 µM	CC(=O)N1CCN(S(=O)(=O)c2ccc(C)c(-c3cnc4c(N)ncnn34)c2)CC1 [Example 229, 1-(4-((3-(4-aminoimidazo[2,1-f][1,2,4]triazin-7-yl)-4-methylphenyl)sulfonyl)piperazin-1-l)ethan-1-one]
< 0.1 µM	Cc1ccc(S(=O)(=O)N2CCN(c3ncccn3)CC2)cc1-c1cnc2c(N)ncnn12 [Example 230, 7-(2-methyl-5-((4-(pyrimidin-2-yl)piperazin-1-yl)sulfonyl)phenyl)imidazo[2,1-f][1,2,4]triazin-4-amine]
< 0.1 µM	Cc1ccc(S(=O)(=O)N2CCN(c3nccnc3C#N)CC2)cc1-c1cnc2c(N)ncnn12 [Example 231, 3-(4-((3-(4-aminoimidazo[2,1-f][1,2,4]triazin-7-yl)-4-methylphenyl)sulfonyl)piperazin-1-yl)pyrazine-2-carbonitrile]
< 0.1 µM	Cc1ccc(S(=O)(=O)N2CCN(c3ccc(C#N)cn3)CC2)cc1-c1cnc2c(N)ncnn12 [Example 232, 6-(4-((3-(4-aminoimidazo[2,1-f][1,2,4]triazin-7-yl)-4-methylphenyl)sulfonyl)piperazin-1-yl)nicotinonitrile]
< 0.1 µM	Cc1ccc(S(=O)(=O)NCc2cnccn2)cc1-c1cnc2c(N)ncnn12 [Example 233, 3-(4-aminoimidazo[2,1-f][1,2,4]triazin-7-yl)-4-methyl-N-(pyrazin-2-ylmethyl)benzenesulfonamide]
0.1 to 0.5 µM	Cc1ccc(S(=O)(=O)NC(c2ccccn2)C(F)(F)F)cc1-c1cnc2c(N)ncnn12 (stereo not shown) [Example 234, 3-(4-aminoimidazo[2,1-f][1,2,4]triazin-7-yl)-4-methyl-N-(2,2,2-trifluoro-1-(pyridin-2-yl)ethyl)benzenesulfonamide]
< 0.1 µM	Cc1ccc(S(=O)(=O)NCc2cccc(C(F)(F)F)n2)cc1-c1cnc2c(N)ncnn12 [Example 235, 3-(4-aminoimidazo[2,1-f][1,2,4]triazin-7-yl)-4-methyl-N-((6-(trifluoromethyl)pyridin-2-yl)methyl)benzenesulfonamide]
< 0.1 µM	Cc1ccc(S(=O)(=O)NCc2ccnn2C)cc1-c1cnc2c(N)ncnn12 [Example 236, 3-(4-aminoimidazo[2,1-f][1,2,4]triazin-7-yl)-4-methyl-N-((1-methyl-1H-pyrazol-5-yl)methyl)benzenesulfonamide]
< 0.1 µM	Cc1nc(CNS(=O)(=O)c2ccc(C)c(-c3cnc4c(N)ncnn34)c2)no1 [Example 237, 3-(4-aminoimidazo[2,1-f][1,2,4]triazin-7-yl)-4-methyl-N-((5-methyl-1,2,4-oxadiazol-3-yl)methyl)benzenesulfonamide]
0.1 to 0.5 µM	Cc1ccc(S(=O)(=O)NC(CN)C2CC2)cc1-c1cnc2c(N)ncnn12 (stereo not shown) [Example 238, N-(2-amino-1-cyclopropylethyl)-3-(4-aminoimidazo[2,1-f][1,2,4]triazin-7-yl)-4-methylbenzenesulfonamide]
